Patent US20160106814A1, “Novel Oral Pharmaceutical Composition for Treatment of Diabetes” (NOVO NORDISK A/S, priority 2013, published 2016)
*1 amine or outer side, *2 acyl side, *3 side chain or, on linkers, in order; H or OH if unused. Where a SMILES comes first, the peptide text is derived from it. Side-chain parts run from the residue outwards. [ ]: non-standard residue; d: D form. The star is where a group is joined. Decanoyl(10-(4-HOOC-PhO)) = O=C(O)c1ccc(OCCCCCCCCCC(=O)*)cc1; γGlu = O=C(O)[C@H](CCC(=O)[*:2])N[*:1]; C14 diacid = O=C(O)CCCCCCCCCCCCC(=O)*; AEEA = NCCOCCOCC(=O)O; Aib = CC(C)(N)C(=O)O

Experiment: Transport of GLP-1 peptide across mucus-producing E12 cell monolayers in the presence of sodium caprate and BBI
Format: in vitro ADME
Details: pH 7.4, apical to basolateral
Method: Buffer was then removed and the experiment initiated. […] Receiver samples (200 μl) were taken every 15 min.
In all samples with GLP-1 peptide and mannitol, the concentration of GLP-1 peptide was determined using a LOCI assay (or LC-MS assay) and scintillation counter, respectively.

[1] = 100 μM GLP-1 peptide + 13 mM sodium caprate + 0.2% BBI
[2] = 100 μM GLP-1 peptide + 13 mM sodium caprate, without BBI

SMILES	Papp A→B [1]	Papp A→B [2]
CC[C@H](C)[C@H](NC(=O)[C@H](Cc1ccccc1)NC(=O)[C@H](CCC(=O)O)NC(=O)[C@H](CCCCNC(=O)COCCOCCNC(=O)COCCOCCNC(=O)CC[C@H](NC(=O)CCCCCCCCCOc1ccc(C(=O)O)cc1)C(=O)O)NC(=O)[C@H](C)NC(=O)[C@H](C)NC(=O)[C@H](CCC(N)=O)NC(=O)[C@H](CCC(=O)O)NC(=O)[C@H](CCC(=O)O)NC(=O)[C@H](CC(C)C)NC(=O)[C@H](Cc1ccc(O)cc1)NC(=O)[C@H](CCCCNC(=O)COCCOCCNC(=O)COCCOCCNC(=O)CC[C@H](NC(=O)CCCCCCCCCOc1ccc(C(=O)O)cc1)C(=O)O)NC(=O)[C@H](CO)NC(=O)[C@@H](NC(=O)[C@H](CC(=O)O)NC(=O)[C@H](CO)NC(=O)[C@@H](NC(=O)[C@H](Cc1ccccc1)NC(=O)[C@@H](NC(=O)CNC(=O)[C@H](CCC(=O)O)NC(=O)C(C)(C)NC(=O)[C@@H](N)Cc1c[nH]cn1)[C@@H](C)O)[C@@H](C)O)C(C)C)C(=O)N[C@@H](C)C(=O)N[C@@H](Cc1c[nH]c2ccccc12)C(=O)N[C@@H](CC(C)C)C(=O)N[C@H](C(=O)N[C@@H](CCC(N)=O)C(=O)NCC(=O)N[C@@H](CCCNC(=N)N)C(=O)NCC(=O)O)C(C)C [GLP-1 peptide 2, N{Epsilon-18}-[2-[2-[2-[[2-[2-[2-[[(4S)-4-carboxy-4-[10-(4-carboxyphenoxy)-decanoylamino]butanoyl]amino]ethoxy]ethoxy]acetyl]amino]ethoxy]ethoxy]acetyl], N{Epsilon-26}-[2-[2-[2-[[2-[2-[2-[[(4S)-4-carboxy-4-[10-(4-carboxyphenoxy)decanoylamino]butanoyl]-amino]ethoxy]ethoxy]acetyl]amino]ethoxy]ethoxy]acetyl]-[Aib8,Lys18,Glu22,Gln34]-GLP-1-(7-37)-peptide]	0.438 ×10⁻⁶ cm/s	0.389 ×10⁻⁶ cm/s
CC[C@H](C)[C@H](NC(=O)[C@H](Cc1ccccc1)NC(=O)[C@H](CCC(=O)O)NC(=O)[C@H](CCCCNC(=O)COCCOCCNC(=O)COCCOCCNC(=O)CC[C@H](NC(=O)CCCCCCCCCOc1ccc(C(=O)O)cc1)C(=O)O)NC(=O)[C@H](C)NC(=O)[C@H](C)NC(=O)[C@H](CCC(N)=O)NC(=O)[C@H](CCC(=O)O)NC(=O)[C@H](CCC(=O)O)NC(=O)[C@H](CC(C)C)NC(=O)[C@H](Cc1ccc(O)cc1)NC(=O)[C@H](CCCCNC(=O)COCCOCCNC(=O)COCCOCCNC(=O)CC[C@H](NC(=O)CCCCCCCCCOc1ccc(C(=O)O)cc1)C(=O)O)NC(=O)[C@H](CO)NC(=O)[C@@H](NC(=O)[C@H](CC(=O)O)NC(=O)[C@H](CO)NC(=O)[C@@H](NC(=O)[C@H](Cc1ccccc1)NC(=O)[C@@H](NC(=O)CNC(=O)[C@H](CCC(=O)O)NC(=O)C(C)(C)NC(=O)[C@@H](N)Cc1c[nH]cn1)[C@@H](C)O)[C@@H](C)O)C(C)C)C(=O)N[C@@H](C)C(=O)N[C@@H](Cc1c[nH]c2ccccc12)C(=O)N[C@@H](CC(C)C)C(=O)N[C@H](C(=O)N[C@@H](CCCNC(=N)N)C(=O)NCC(=O)N[C@@H](CCCNC(=N)N)C(=O)NCC(=O)O)C(C)C [GLP-1 peptide 4, N{Epsilon-18}-[2-[2-[2-[[2-[2-[2-[[(4S)-4-carboxy-4-[10-(4-carboxyphenoxy)-decanoylamino]butanoyl]amino]ethoxy]ethoxy]acetyl]amino]ethoxy]ethoxy]acetyl], N{Epsilon-26}-[2-[2-[2-[[2-[2-[2-[[(4S)-4-carboxy-4-[10-(4-carboxyphenoxy)decanoylamino]butanoyl]-amino]ethoxy]ethoxy]acetyl]amino]ethoxy]ethoxy]acetyl]-[Aib8,Lys18,Glu22,Arg34]-GLP-1-(7-37)-peptide] (H-H[Aib]EGTFTSDVSK([AEEA-AEEA-γGlu-Decanoyl(10-(4-HOOC-PhO))])YLEEQAAK([AEEA-AEEA-γGlu-Decanoyl(10-(4-HOOC-PhO))])EFIAWLVRGRG-OH)	0.529 ×10⁻⁶ cm/s	0.204 ×10⁻⁶ cm/s
CC[C@H](C)[C@H](NC(=O)[C@H](Cc1ccccc1)NC(=O)[C@H](CCC(=O)O)NC(=O)[C@H](CCCCNC(=O)COCCOCCNC(=O)COCCOCCNC(=O)CC[C@H](NC(=O)CCCCCCCCCCCCC(=O)O)C(=O)O)NC(=O)[C@H](C)NC(=O)[C@H](C)NC(=O)[C@H](CCC(N)=O)NC(=O)[C@H](CCC(=O)O)NC(=O)[C@H](CCC(=O)O)NC(=O)[C@H](CC(C)C)NC(=O)[C@H](Cc1ccc(O)cc1)NC(=O)[C@H](CCCCNC(=O)COCCOCCNC(=O)COCCOCCNC(=O)CC[C@H](NC(=O)CCCCCCCCCCCCC(=O)O)C(=O)O)NC(=O)[C@H](CO)NC(=O)[C@@H](NC(=O)[C@H](CC(=O)O)NC(=O)[C@H](CO)NC(=O)[C@@H](NC(=O)[C@H](Cc1ccccc1)NC(=O)[C@@H](NC(=O)CNC(=O)[C@H](CCC(=O)O)NC(=O)C(C)(C)NC(=O)[C@@H](N)Cc1c[nH]cn1)[C@@H](C)O)[C@@H](C)O)C(C)C)C(=O)N[C@@H](C)C(=O)N[C@@H](Cc1c[nH]c2ccccc12)C(=O)N[C@@H](CC(C)C)C(=O)N[C@H](C(=O)N[C@@H](CCCNC(=N)N)C(=O)NCC(=O)N[C@@H](CCCNC(=N)N)C(=O)NCC(=O)O)C(C)C [GLP-1 peptide 5, N{Epsilon-18}-[2-[2-[2-[[2-[2-[2-[[(4S)-4-carboxy-4-(13-carboxytridecanoylamino)butanoyl]amino]ethoxy]ethoxy]acetyl]amino]ethoxy]ethoxy]acetyl], —N{Epsilon-26}-[2-[2-[2-[[2-[2-[2-[[(4S)-4-carboxy-4-(13-carboxytridecanoylamino)butanoyl]-amino]ethoxy]ethoxy]acetyl]amino]ethoxy]ethoxy]acetyl]-[Aib8,Lys18,Glu22,Arg34]-GLP-1-(7-37)-peptide] (H-H[Aib]EGTFTSDVSK([AEEA-AEEA-γGlu-C14 diacid])YLEEQAAK([AEEA-AEEA-γGlu-C14 diacid])EFIAWLVRGRG-OH)	0.592 ×10⁻⁶ cm/s	0.314 ×10⁻⁶ cm/s
CC[C@H](C)[C@H](NC(=O)[C@H](Cc1ccccc1)NC(=O)[C@H](CCC(=O)O)NC(=O)[C@H](CCCCNC(=O)COCCOCCNC(=O)COCCOCCNC(=O)CC[C@H](NC(=O)CCCCCCCCCOc1ccc(C(=O)O)cc1)C(=O)O)NC(=O)[C@H](C)NC(=O)[C@H](C)NC(=O)[C@H](CCC(N)=O)NC(=O)CNC(=O)[C@H](CCC(=O)O)NC(=O)[C@H](CC(C)C)NC(=O)[C@H](Cc1ccc(O)cc1)NC(=O)[C@H](CCCCNC(=O)COCCOCCNC(=O)COCCOCCNC(=O)CC[C@H](NC(=O)CCCCCCCCCOc1ccc(C(=O)O)cc1)C(=O)O)NC(=O)[C@H](CO)NC(=O)[C@@H](NC(=O)[C@H](CC(=O)O)NC(=O)[C@H](CO)NC(=O)[C@@H](NC(=O)[C@H](Cc1ccccc1)NC(=O)[C@@H](NC(=O)CNC(=O)[C@H](CCC(=O)O)NC(=O)C(C)(C)NC(=O)[C@@H](N)Cc1c[nH]cn1)[C@@H](C)O)[C@@H](C)O)C(C)C)C(=O)N[C@@H](C)C(=O)N[C@@H](Cc1c[nH]c2ccccc12)C(=O)N[C@@H](CC(C)C)C(=O)N[C@H](C(=O)N[C@@H](CCC(N)=O)C(=O)NCC(=O)N[C@@H](CCCNC(=N)N)C(=O)NCC(=O)O)C(C)C [GLP-1 peptide 6, N{Epsilon-18}-[2-[2-[2-[[2-[2-[2-[[(4S)-4-carboxy-4-[10-(4-carboxyphenoxy)-decanoylamino]butanoyl]amino]ethoxy]ethoxy]acetyl]amino]ethoxy]ethoxy]acetyl], N{Epsilon-26}-[2-[2-[2-[[2-[2-[2-[[(4S)-4-carboxy-4-[10-(4-carboxyphenoxy)decanoylamino]butanoyl]-amino]ethoxy]ethoxy]acetyl]amino]ethoxy]ethoxy]acetyl]-[Aib8,Lys18,Gln34]-GLP-1-(7-37)-peptide]	0.296 ×10⁻⁶ cm/s	0.159 ×10⁻⁶ cm/s
